Source: patent US20090156639A1, “COMPOSITIONS AND METHODS OF TREATMENT USING L-TYPE CALCIUM CHANNEL BLOCKERS AND CHOL[…]” (priority 2003, published 2009)
Structures can show the parent of a compound that is named as a salt.

System: young adult male Sprague-Dawley rats
Assay: Novel Object Recognition Memory test (hippocampus-dependent nonspatial memory task)
Format: in vivo, rat
Conditions: for approximate optimum dosage in the Novel Object Recognition Memory test: from dose response data (FIGS. 1, 2, 4); for % Exploration of the novel object: prior to training, test 24 hours after training, n=6
Procedure: The general procedure for compound evaluation in Novel Object Recognition Memory (Hippocampus-Dependent Nonspatial Memory Task) is as follows: • 1. The animals are transported in their home cages from the vivarium to a dimly lit (5-6 lux) training room and acclimated for approximately 45 minutes. • 2. The animals are than individually placed in the training/testing environment (an opaque plastic chamber, 61 cm×42 cm×37 cm with bedding on the floor) for 5 minutes of habituation. Thereafter, the animals are returned to their home cage.
They remained in the testing room for approximately 15 minutes after the last animal is habituated before being returned to their colony room.
For the memory test, the objects to be discriminated are a goblet (11 cm in height, 6.5 cm in diameter) and a conical candlestick holder (11 cm in height, 6 cm in diameter) made of green, nontransparent glass. There are multiple copies of each object used for training and testing. Object pairs are randomly assigned within and between conditions. For training, two identical objects are placed 8 cm from the sides of the two short walls of the chamber. • 4. The day after initial habituation, the animals are returned to the testing room and acclimated as described in Step 1. Drug and/or vehicle is then administered according to experimental design (i.p.: 263/8-gauge needle; or p.o.: 18-gauge needle) at an interval ranging from 24 hours prior to 24 hours post-training. The training procedure is begun by placing the animal, nose facing the wall, into the empty chamber at a position in the center of a long wall. After 1 minute of re-habituation, the animal is removed from the chamber and placed in a holding cage (45 cm×26 cm×20 cm) with bedding for a period of 10 seconds. During this delay, the training objects are placed in the chamber. The animal is then returned to the chamber for a 15-minute period of exploration. The animal's movements are observed via cameral located over the chamber and are recorded on videotape. After the training session, the animal is returned to its home cage. The objects are cleaned with an 85% EtOH solution. The animals remain in the testing room for approximately 15 minutes after the last animal is trained before being returned to their colony room. • 5. Following a delay interval (1 hour to several weeks, but usually 24 hours), the animals are again returned to the testing room and acclimated as described in Step 1. After this, individual animals are re-habituated to the empty chamber for 1 minute as was described in Step 4. For the test, two new objects are placed in the chamber: one is identical to the objects used during training, while the other is novel. The position of the novel object is randomized for each animal. The animals are allowed to actively explore until they accumulate a total of 60 seconds of exploration. During the test period, the amount of time spent exploring either the novel or the familiar object is recorded using R. E. Clark's V.P.C. program, which also signals when 60 seconds of exploration has been accumulated. The animal's movements are observed via a camera located over the chamber and are recorded on videotape. Any animal that fails to explore either object or to reach the set criterion within 15 minutes is excluded from analysis. After the test, the animals are returned to their home cage, and then to the colony room. The objects are cleaned with an 85% EtOH solution. • 6.

SMILES | approximate optimum dosage in the Novel Object Recognition Memory test | % Exploration of the novel object (donepezil 0.05 mg/kg i.p. alone (suboptimal dose) plus vehicle) | % Exploration of the novel object (Compound A 1.00 mg/kg i.p. alone (suboptimal dose) plus vehicle)
CC12CC3CC(C)(C1)CC(N)(C3)C2 [memantine] | ~1.0 mg/kg |  | 
COc1cc2c(cc1OC)C(=O)C(CC1CCN(Cc3ccccc3)CC1)C2 (racemic) [donepezil, (+/−) 2,3-dihydro-5,6-dimethoxy-2-[[1-(phenylmethyl)-4-piperidinyl]methyl]-IH-indene-1-one hydrochloride] | ~0.5 mg/kg | 50% | 
COCCOC(=O)C1=C(C)NC(C)=C(C(=O)OC(C)C)C1c1cccc(C#N)c1Cl (single isomer, unassigned; (+)) [Compound A, (+) isopropyl 2-methoxyethyl 4-(2-chloro-3-cyano-phenyl)-1,4-dihydro-2,6-dimethylpyridine-3,5-dicarboxylate] | ~10 mg/kg |  | 50%
